Experimental data: US8187823B2, “Modulation of neuroglia-derived BDNF in the treatment and prevention of pain” (Université Laval, priority 2004, dated 2012)

B1: BDNF: brain-derived neurotrophic factor; recombinant human BDNF delivered intrathecally or bath-applied (protein, listed as Homo sapiens)
chain: MTILFLTMVISYFGCMKAAPMKEANIRGQGGLAYPGVRTHGTLESVNGPKAGSRGLTSLADTFEHVIEELLDEDQKVRPNEENNKDADLYTSRVMLSSQVPLEPPLLFLLEEYKNYLDAANMSMRVRRHSDPARRGELSVCDSISEWVTAADKKTAVDMSGGTVTVLEKVPVSKGQLKQYFYETKCNPMGYTKEGCRGIDKRHWNSQCRTTQSYVRALTMDSKKRIGWRFIRIDTSCVCTLTIKRGR

Experiments:
[1] = test system: cultured microglia; test: ELISA of BDNF protein in supernatant of cultured microglia; format: cell-based, rat; conditions: ATP stimulation; TNP-ATP 10 μM; supernatant 5 hours after treatment
Procedure: Microglial cultures. Rat primary cultured microglia were prepared under standard conditions as described^2,21. In brief, mixed glial culture was prepared from neonatal Wistar rats and maintained for 10-16 days in DMEM medium with 10% fetal bovine serum. Microglia were separated from the primary culture by gentle shaking of the flask and replated on plastic dishes. The cells were removed from the dish surface using a cell scraper and collected in 100 μl of PBS; subsequently, the cell density of microglia was measured using a cell counter and the volume of PBS adjusted to give a final density of 1000 cells/10 μl. This method produces microglial cultures of >95% purity. For ATP-stimulation, the purified microglia were incubated with ATP (50 μM) for 1 hour. […]

[2] = test system: LI neurons; test: Eanion of LI neurons in spinal slices from PNI rats with bath-applied agents; format: cell-based, rat; conditions: TNP-ATP 1 μM bath-applied, slices from allodynic rats two weeks after PNI
Procedure: (§1) Peripheral nerve injury was induced by surgically implanting a polyethylene cuff (2 mm in length, inner diameter 0.7 mm) around the sciatic nerve of adult male Sprague-Dawley rats^3,17. For sham surgery, which was used as a control, animals had all surgical procedures exempt that the cuff was not implanted. The 50% withdrawal threshold, or 50% paw withdrawal threshold, to mechanical stimulation was assessed^3,18. […] In animals with peripheral nerve injury induced in this model, there was microglial activation in the spinal cord ipsilateral to the nerve cuff, as indicated by increased labeling for the microglial activation marker OX-42 (FIGS. 5B and 5C).
(§2) Slice preparation. Parasagittal slices (300-350 μm) of spinal cord were prepared from adult (>50 days old) male rats as previously described^31. Slices were continually superfused (2-3 ml min^−1) with artificial cerebrospinal fluid (ACSF) containing (in mM): 126 NaCl, 26 NaHCO3, 10 glucose, 2.5 KCl, 2 CaCl2, 2 MgCl2, 1.25 NaH2PO4 (bubbled with 95% O2/5% CO2, pH ˜7.4).
Recordings. For perforated-patch recordings, the pipette tip was filled with a solution containing (in mM): 130 potassium methyl sulphate (KMeSO4), 5 CsCl, 2 MgCl2, 11 BAPTA, 1 CaCl2, 4 ATP, 0.4 GTP, 10 HEPES (˜pH 7.4). […]

[3] = test system: rats with peripheral nerve injury; conditions: literature (ref. 2), acting on P2X receptors in microglia; cited from earlier work
[4] = test system: LI neurons; test: Eanion of LI neurons in spinal slices from naïve rats with bath-applied BDNF; format: cell-based, rat; conditions: BDNF 50 ng/ml, >90 min
Procedure: as §2
Recordings. For perforated-patch recordings, the pipette tip was filled with a solution containing (in mM): 130 potassium methyl sulphate (KMeSO4), 5 CsCl, 2 MgCl2, 11 BAPTA, 1 CaCl2, 4 ATP, 0.4 GTP, 10 HEPES (˜pH 7.4). The pipette was back-filled with this same solution supplemented with 25 μg ml^−1 gramicidin D [gramicidin stock was at 10 mg ml^−1 in dimethylsulphoxide (DMSO)]. Recordings in this mode were selected when access resistance was stable between 25-45 MΩ. For whole-cell voltage-clamp recordings, pipettes were filled with the above solution lacking gramicidin D. GABA was applied locally for 10-50 ms by pressure ejection through a micro-pipette. Data acquisition and analysis of PSCs were performed as previously described^19; membrane potential measurements were corrected as previously described^20. […] All measurements are given as means±SEM, except where indicated. […]

[5] = test system: naïve rats; test: Paw withdrawal threshold (WD50) after intrathecal delivery to naïve rats; format: in vivo, rat; conditions: for paw withdrawal threshold (WD50): intrathecal delivery to naïve/intact rats
Procedure: as §1
Microglial cultures. Rat primary cultured microglia were prepared under standard conditions as described^2,21. In brief, mixed glial culture was prepared from neonatal Wistar rats and maintained for 10-16 days in DMEM medium with 10% fetal bovine serum. Microglia were separated from the primary culture by gentle shaking of the flask and replated on plastic dishes. The cells were removed from the dish surface using a cell scraper and collected in 100 μl of PBS; subsequently, the cell density of microglia was measured using a cell counter and the volume of PBS adjusted to give a final density of 1000 cells/10 μl. This method produces microglial cultures of >95% purity. For ATP-stimulation, the purified microglia were incubated with ATP (50 μM) for 1 hour.
Intrathecal injections and ELISA. At least three days before drug administration, rats were anaesthetized with sodium pentobarbital (65 mg kg^−1), and a lumbar spinal catheter (PE-10 polyethylene tube) was inserted into the intrathecal space^22. On recovery from surgery, lower-body paralysis was induced through intrathecal lidocaine (2%, 30 μl) injection to confirm proper catheter localization. […] At the doses used, none of the compounds produced motor disturbances or sedation, as assessed by grasping, righting and placing reflexes and behavioural observations^23. […]

Molecule	release of BDNF from microglia in culture [1]	Eanion of LI neurons [2] [mV]	nerve injury-induced tactile allodynia [3]	Eanion of LI neurons vs control untreated slices [4]	paw withdrawal threshold (WD50) [5]	paw withdrawal threshold (WD50) ([5]; listed as recombinant human BDNF)	time to significant decrease in WD50 ([5]; recombinant human BDNF 20 μg intrathecal, intact rats) [h]
Nc1ncnc2c1ncn2[C@@H]1O[C@H](COP(=O)(O)OP(=O)(O)OP(=O)(O)O)[C@@H](O)[C@H]1O [ATP]	caused release of BDNF	–	–	–	–	–	–
TNP-ATP	blocked	−59.3±1.8	reverse nerve injury-induced tactile allodynia	–	–	–	–
B1	–	–	–	significantly less negative	decrease in paw withdrawal threshold	significant and transient decrease in the WD50	≤ 1
